ChEMBL document CHEMBL4507273 (2021)

Legend:
[1] = target: 5-hydroxytryptamine receptor 7 (Homo sapiens, UniProt P34969); assay: GPCRScan assay: inhibition of 5-HT7A; set-up: radioligand conc. used [nm] 5.0 – 6.0, parental cells Stable HEK
[2] = target: Son of sevenless homolog 2 (Homo sapiens, UniProt Q07890, G12C)
[3] = test system: Tyrosine-protein kinase ABL1 (Homo sapiens), P00519 [F317I]; conditions: Compound concentration 1000.0 nM
[4] = target: RAC-alpha serine/threonine-protein kinase (Homo sapiens) (UniProt P31749); conditions: Compound concentration 1000.0 nM
[5] = target: NUAK family SNF1-like kinase 1 (Homo sapiens) (UniProt O60285); conditions: Compound concentration 1000.0 nM
[6] = target: Mitogen-activated protein kinase kinase kinase 6 (Homo sapiens) (UniProt O95382); conditions: Compound concentration 1000.0 nM
[7] = target: Aurora kinase A (Homo sapiens) (UniProt O14965); conditions: Compound concentration 1000.0 nM
[8] = target: Cyclin-dependent kinase 7 (Homo sapiens) (UniProt P50613); conditions: Compound concentration 1000.0 nM
[9] = target: Cyclin-dependent kinase 8 (Homo sapiens) (UniProt P49336); conditions: Compound concentration 1000.0 nM
[10] = target: Macrophage colony-stimulating factor 1 receptor (Homo sapiens) (UniProt P07333); conditions: Compound concentration 1000.0 nM
[11] = target: Casein kinase I isoform delta (Homo sapiens) (UniProt P48730); conditions: Compound concentration 1000.0 nM
[12] = target: Casein kinase I isoform gamma-2 (Homo sapiens) (UniProt P78368); conditions: Compound concentration 1000.0 nM
[13] = target: Serine/threonine-protein kinase DCLK1 (Homo sapiens) (UniProt O15075); conditions: Compound concentration 1000.0 nM
[14] = target: Ephrin type-A receptor 4 (Homo sapiens) (UniProt P54764); conditions: Compound concentration 1000.0 nM
[15] = test system: Receptor-type tyrosine-protein kinase FLT3 (Homo sapiens), P36888 [N841I]; conditions: Compound concentration 1000.0 nM
[16] = target: Serine/threonine-protein kinase haspin (Homo sapiens) (UniProt Q8TF76); conditions: Compound concentration 1000.0 nM
[17] = target: Inhibitor of nuclear factor kappa-B kinase subunit alpha (Homo sapiens) (UniProt O15111); conditions: Compound concentration 1000.0 nM
[18] = target: Serine/threonine-protein kinase LATS2 (Homo sapiens) (UniProt Q9NRM7); conditions: Compound concentration 1000.0 nM
[19] = target: Tyrosine-protein kinase Lck (Homo sapiens) (UniProt P06239); conditions: Compound concentration 1000.0 nM
[20] = target: Mitogen-activated protein kinase kinase kinase 13 (Homo sapiens) (UniProt O43283); conditions: Compound concentration 1000.0 nM
[21] = target: Mitogen-activated protein kinase kinase kinase kinase 2 (Homo sapiens) (UniProt Q12851); conditions: Compound concentration 1000.0 nM
[22] = target: Dual specificity mitogen-activated protein kinase kinase 2 (Homo sapiens) (UniProt P36507); conditions: Compound concentration 1000.0 nM
[23] = target: Dual specificity mitogen-activated protein kinase kinase 4 (Homo sapiens) (UniProt P45985); conditions: Compound concentration 1000.0 nM
[24] = target: Myosin-IIIa (Homo sapiens) (UniProt Q8NEV4); conditions: Compound concentration 1000.0 nM
[25] = target: Mitogen-activated protein kinase 14 (Homo sapiens) (UniProt Q16539); conditions: Compound concentration 1000.0 nM
[26] = target: Serine/threonine-protein kinase PAK 4 (Homo sapiens) (UniProt O96013); conditions: Compound concentration 1000.0 nM
[27] = target: Cyclin-dependent kinase 14 (Homo sapiens) (UniProt O94921); conditions: Compound concentration 1000.0 nM
[28] = target: Phosphatidylinositol 4-phosphate 3-kinase C2 domain-containing subunit beta (Homo sapiens) (UniProt O00750); conditions: Compound concentration 1000.0 nM
[29] = test system: Phosphatidylinositol 4,5-bisphosphate 3-kinase catalytic subunit alpha isoform (Homo sapiens), P42336 [E542K]; conditions: Compound concentration 1000.0 nM
[30] = test system: Phosphatidylinositol 4,5-bisphosphate 3-kinase catalytic subunit alpha isoform (Homo sapiens), P42336 [H1047Y]; conditions: Compound concentration 1000.0 nM
[31] = target: Ribosomal protein S6 kinase alpha-2 (Homo sapiens) (UniProt Q15349); conditions: Compound concentration 1000.0 nM
[32] = target: Tyrosine-protein kinase SYK (Homo sapiens) (UniProt P43405); conditions: Compound concentration 1000.0 nM
[33] = target: Serine/threonine-protein kinase TAO1 (Homo sapiens) (UniProt Q7L7X3); conditions: Compound concentration 1000.0 nM
[34] = target: BDNF/NT-3 growth factors receptor (Homo sapiens) (UniProt Q16620); conditions: Compound concentration 1000.0 nM
[35] = target: Serine/threonine-protein kinase ULK2 (Homo sapiens) (UniProt Q8IYT8); conditions: Compound concentration 1000.0 nM
[36] = target: Mitogen-activated protein kinase kinase kinase 20 (Homo sapiens) (UniProt Q9NYL2); conditions: Compound concentration 1000.0 nM
[37] = target: T1, Muscarinic acetylcholine receptor M1 (Homo sapiens) (UniProt P11229); conditions: Compound concentration 10.0 uM
T1 sequence (whole entry): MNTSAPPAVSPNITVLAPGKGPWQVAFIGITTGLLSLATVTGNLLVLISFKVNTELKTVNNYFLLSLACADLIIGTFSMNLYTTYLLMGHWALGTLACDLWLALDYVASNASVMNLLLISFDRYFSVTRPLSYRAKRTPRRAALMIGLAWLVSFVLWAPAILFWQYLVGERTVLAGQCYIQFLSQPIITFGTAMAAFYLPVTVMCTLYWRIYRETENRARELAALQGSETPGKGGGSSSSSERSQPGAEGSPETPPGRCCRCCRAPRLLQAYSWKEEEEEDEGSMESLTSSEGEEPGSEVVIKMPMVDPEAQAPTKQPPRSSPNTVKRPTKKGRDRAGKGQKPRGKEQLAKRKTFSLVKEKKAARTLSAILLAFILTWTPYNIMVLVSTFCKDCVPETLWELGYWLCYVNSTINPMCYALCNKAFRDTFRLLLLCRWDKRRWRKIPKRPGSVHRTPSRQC

[38] = target: Muscarinic acetylcholine receptor M3 (Homo sapiens, UniProt P20309); conditions: Compound concentration 10.0 uM

5-hydroxytryptamine receptor 7, sequence (P34969 whole entry): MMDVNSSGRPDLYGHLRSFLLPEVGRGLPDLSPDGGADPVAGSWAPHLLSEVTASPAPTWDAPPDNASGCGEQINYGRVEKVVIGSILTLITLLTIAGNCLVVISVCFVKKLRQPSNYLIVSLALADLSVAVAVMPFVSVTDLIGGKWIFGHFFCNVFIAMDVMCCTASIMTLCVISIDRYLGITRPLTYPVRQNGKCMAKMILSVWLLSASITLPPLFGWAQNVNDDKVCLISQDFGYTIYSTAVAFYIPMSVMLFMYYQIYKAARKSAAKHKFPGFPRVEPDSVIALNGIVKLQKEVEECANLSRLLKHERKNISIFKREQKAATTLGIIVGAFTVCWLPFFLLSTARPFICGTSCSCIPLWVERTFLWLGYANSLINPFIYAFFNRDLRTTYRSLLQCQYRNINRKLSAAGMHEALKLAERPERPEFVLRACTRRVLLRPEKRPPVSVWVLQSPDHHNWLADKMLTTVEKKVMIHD
Phosphatidylinositol 4,5-bisphosphate 3-kinase catalytic subunit alpha isoform (Homo sapiens), P42336 [H1047Y], sequence (P42336 whole entry H1047Y, canonical isoform): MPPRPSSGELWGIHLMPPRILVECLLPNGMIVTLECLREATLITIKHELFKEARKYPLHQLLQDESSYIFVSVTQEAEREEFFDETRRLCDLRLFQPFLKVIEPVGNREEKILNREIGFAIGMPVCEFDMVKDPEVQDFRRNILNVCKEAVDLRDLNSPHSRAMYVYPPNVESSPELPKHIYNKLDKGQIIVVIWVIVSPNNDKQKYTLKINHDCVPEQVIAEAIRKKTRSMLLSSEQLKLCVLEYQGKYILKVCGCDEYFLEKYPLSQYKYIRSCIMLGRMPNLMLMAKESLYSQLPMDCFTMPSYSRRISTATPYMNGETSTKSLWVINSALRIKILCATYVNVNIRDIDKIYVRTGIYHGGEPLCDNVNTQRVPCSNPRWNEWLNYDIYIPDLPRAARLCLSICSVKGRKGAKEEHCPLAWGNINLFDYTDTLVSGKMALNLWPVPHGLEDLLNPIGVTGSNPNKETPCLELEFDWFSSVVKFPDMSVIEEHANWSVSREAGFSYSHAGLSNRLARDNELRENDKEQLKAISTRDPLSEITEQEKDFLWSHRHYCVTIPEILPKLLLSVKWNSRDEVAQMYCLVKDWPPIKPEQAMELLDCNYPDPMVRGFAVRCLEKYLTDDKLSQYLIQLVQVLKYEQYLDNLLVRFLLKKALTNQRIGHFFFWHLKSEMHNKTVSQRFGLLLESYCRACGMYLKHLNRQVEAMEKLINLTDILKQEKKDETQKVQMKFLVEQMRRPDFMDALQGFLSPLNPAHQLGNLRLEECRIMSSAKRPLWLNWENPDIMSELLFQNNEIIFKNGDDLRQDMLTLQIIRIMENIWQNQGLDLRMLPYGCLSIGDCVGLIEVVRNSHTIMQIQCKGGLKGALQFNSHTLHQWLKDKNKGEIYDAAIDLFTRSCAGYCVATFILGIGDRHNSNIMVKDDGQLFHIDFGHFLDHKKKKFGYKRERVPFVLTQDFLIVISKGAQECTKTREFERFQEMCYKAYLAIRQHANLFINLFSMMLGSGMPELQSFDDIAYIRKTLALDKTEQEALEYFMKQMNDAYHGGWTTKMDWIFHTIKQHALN
Inhibitor of nuclear factor kappa-B kinase subunit alpha (Homo sapiens), sequence (O15111 whole entry): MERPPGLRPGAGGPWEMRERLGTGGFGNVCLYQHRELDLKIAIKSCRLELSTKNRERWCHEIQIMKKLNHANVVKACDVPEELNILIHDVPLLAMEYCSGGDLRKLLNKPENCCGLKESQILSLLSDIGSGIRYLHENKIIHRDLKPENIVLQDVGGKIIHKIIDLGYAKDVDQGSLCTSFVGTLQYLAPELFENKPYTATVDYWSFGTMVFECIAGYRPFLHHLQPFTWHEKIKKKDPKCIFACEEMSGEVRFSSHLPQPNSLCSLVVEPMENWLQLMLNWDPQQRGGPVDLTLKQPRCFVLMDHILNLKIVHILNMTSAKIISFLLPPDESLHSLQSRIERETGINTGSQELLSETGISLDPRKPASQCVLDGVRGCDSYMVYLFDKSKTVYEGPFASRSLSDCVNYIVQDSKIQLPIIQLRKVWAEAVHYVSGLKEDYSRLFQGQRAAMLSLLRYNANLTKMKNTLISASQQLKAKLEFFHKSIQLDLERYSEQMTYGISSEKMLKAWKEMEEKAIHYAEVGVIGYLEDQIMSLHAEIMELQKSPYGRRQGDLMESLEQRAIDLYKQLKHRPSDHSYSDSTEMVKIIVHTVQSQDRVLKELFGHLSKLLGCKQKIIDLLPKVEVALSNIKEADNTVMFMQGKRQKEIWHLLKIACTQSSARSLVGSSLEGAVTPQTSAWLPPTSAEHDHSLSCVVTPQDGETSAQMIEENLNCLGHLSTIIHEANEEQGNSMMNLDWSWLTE
Serine/threonine-protein kinase haspin (Homo sapiens), sequence (Q8TF76 whole entry): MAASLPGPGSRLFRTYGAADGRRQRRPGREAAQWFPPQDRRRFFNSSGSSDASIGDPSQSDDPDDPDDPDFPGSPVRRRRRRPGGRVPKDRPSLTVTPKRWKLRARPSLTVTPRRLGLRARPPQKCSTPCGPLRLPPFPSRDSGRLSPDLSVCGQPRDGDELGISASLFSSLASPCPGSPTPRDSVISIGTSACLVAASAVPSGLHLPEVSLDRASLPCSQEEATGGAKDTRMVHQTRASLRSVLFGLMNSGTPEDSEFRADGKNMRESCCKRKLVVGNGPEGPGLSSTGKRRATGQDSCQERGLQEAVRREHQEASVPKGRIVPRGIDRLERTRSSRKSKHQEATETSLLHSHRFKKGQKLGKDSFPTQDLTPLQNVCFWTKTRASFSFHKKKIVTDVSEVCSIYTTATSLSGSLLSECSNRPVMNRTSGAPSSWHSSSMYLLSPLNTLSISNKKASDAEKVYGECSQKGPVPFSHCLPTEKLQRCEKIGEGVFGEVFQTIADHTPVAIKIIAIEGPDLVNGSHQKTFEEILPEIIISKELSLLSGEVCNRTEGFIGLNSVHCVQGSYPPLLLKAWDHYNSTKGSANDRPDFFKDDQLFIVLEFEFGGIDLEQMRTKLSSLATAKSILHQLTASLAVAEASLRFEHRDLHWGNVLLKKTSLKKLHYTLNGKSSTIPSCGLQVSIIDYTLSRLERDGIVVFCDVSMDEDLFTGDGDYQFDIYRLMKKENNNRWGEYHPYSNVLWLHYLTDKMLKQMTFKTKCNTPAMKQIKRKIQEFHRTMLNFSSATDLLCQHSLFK
Son of sevenless homolog 2, sequence (Q07890 whole entry, looked up, stated change not applied): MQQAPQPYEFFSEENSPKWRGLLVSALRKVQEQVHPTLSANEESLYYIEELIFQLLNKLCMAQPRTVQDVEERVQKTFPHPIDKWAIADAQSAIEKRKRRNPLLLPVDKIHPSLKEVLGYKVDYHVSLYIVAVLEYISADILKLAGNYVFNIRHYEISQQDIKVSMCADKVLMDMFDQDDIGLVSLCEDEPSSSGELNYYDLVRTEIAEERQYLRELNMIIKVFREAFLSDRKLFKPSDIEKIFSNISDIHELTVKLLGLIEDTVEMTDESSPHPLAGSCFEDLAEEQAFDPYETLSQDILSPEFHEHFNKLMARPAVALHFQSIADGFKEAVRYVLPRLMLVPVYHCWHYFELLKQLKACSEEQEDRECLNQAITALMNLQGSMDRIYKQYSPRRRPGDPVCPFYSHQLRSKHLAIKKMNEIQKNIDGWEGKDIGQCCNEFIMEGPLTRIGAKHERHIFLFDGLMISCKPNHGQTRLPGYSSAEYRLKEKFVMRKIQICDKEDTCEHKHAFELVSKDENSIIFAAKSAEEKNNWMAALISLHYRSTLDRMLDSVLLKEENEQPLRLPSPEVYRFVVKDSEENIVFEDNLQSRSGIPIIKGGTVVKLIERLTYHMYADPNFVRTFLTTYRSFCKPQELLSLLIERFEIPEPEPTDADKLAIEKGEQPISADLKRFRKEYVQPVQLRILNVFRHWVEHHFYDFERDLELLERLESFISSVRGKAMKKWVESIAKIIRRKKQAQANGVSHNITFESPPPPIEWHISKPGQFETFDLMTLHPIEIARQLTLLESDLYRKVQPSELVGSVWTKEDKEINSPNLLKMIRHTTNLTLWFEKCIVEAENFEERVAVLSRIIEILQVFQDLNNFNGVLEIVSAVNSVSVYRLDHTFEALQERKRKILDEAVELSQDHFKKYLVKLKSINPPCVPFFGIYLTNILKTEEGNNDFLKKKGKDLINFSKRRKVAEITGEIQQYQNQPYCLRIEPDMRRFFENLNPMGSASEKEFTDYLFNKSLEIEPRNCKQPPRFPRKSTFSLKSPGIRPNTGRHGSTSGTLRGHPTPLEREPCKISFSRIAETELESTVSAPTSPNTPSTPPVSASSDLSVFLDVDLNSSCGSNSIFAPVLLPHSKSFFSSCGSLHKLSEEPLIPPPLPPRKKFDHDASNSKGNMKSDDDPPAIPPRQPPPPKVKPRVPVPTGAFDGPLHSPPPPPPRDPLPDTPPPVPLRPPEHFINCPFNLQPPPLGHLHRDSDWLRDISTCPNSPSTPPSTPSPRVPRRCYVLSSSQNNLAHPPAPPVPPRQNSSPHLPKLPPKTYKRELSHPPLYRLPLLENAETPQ
Mitogen-activated protein kinase 14 (Homo sapiens), sequence (Q16539 whole entry): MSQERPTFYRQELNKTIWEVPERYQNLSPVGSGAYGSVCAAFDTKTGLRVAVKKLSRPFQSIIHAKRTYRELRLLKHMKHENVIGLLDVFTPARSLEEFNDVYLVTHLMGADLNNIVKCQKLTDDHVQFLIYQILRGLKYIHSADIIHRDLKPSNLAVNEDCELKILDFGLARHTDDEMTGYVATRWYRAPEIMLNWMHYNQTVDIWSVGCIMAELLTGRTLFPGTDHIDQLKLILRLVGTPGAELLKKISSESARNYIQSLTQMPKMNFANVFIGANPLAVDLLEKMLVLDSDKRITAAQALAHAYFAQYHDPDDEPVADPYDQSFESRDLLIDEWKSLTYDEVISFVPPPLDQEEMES
Phosphatidylinositol 4,5-bisphosphate 3-kinase catalytic subunit alpha isoform (Homo sapiens), P42336 [E542K], sequence (P42336 whole entry E542K, canonical isoform): as the sequence (P42336 whole entry H1047Y, canonical isoform) above, with E542K, Y1047H counted along it

CNCc1ccccc1-c1csc([C@@H](C)Nc2nc(C)nc3cc(OC)c(OC)cc23)c1 [BAY-293]
Ki ([1]; read-out: Ki): 1.73 µM
Ki ([1]; read-out: pKi (converted)): 1.7 µM
IC50 [2]: > 20 µM (not active)
residual activity [3]: 78%
residual activity [4]: 100%
residual activity [5]: 97%
residual activity [6]: 99%
residual activity [7]: 73%
residual activity [8]: 63%
residual activity [9]: 68%
residual activity [10]: 91%
residual activity [11]: 82%
residual activity [12]: 98%
residual activity [13]: 86%
residual activity [14]: 79%
residual activity [15]: 77%
residual activity [16]: 98%
residual activity [17]: 100%
residual activity [18]: 98%
residual activity [19]: 100%
residual activity [20]: 80%
residual activity [21]: 91%
residual activity [22]: 82%
residual activity [23]: 86%
residual activity [24]: 100%
residual activity [25]: 87%
residual activity [26]: 97%
residual activity [27]: 100%
residual activity [28]: 86%
residual activity [29]: 80%
residual activity [30]: 100%
residual activity [31]: 100%
residual activity [32]: 100%
residual activity [33]: 95%
residual activity [34]: 88%
residual activity [35]: 100%
residual activity [36]: 75%
inhibition [37]: 88.8%
inhibition [38]: 56.5%

CNCc1ccccc1-c1csc([C@H](C)Nc2nc(C)nc3cc(OC)c(OC)cc23)c1 [BAY-294]
Ki ([1]; read-out: Ki): 0.7 µM
IC50 [2]: > 20 µM (not active)
residual activity [3]: 80%
residual activity [4]: 100%
residual activity [5]: 90%
residual activity [6]: 100%
residual activity [7]: 73%
residual activity [8]: 61%
residual activity [9]: 84%
residual activity [10]: 91%
residual activity [11]: 95%
residual activity [12]: 100%
residual activity [13]: 87%
residual activity [14]: 100%
residual activity [15]: 100%
residual activity [16]: 100%
residual activity [17]: 90%
residual activity [18]: 95%
residual activity [19]: 100%
residual activity [20]: 91%
residual activity [21]: 97%
residual activity [22]: 100%
residual activity [23]: 100%
residual activity [24]: 100%
residual activity [25]: 100%
residual activity [26]: 100%
residual activity [27]: 100%
residual activity [28]: 100%
residual activity [29]: 88%
residual activity [30]: 100%
residual activity [31]: 100%
residual activity [32]: 100%
residual activity [33]: 100%
residual activity [34]: 98%
residual activity [35]: 100%
residual activity [36]: 100%
inhibition [37]: 89.1%
inhibition [38]: 48%
